Source: PubChem BioAssay (NCI)
“And” between values parts separate entries of the source, which are not always exact repeats. Equal values may be shown once.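 Grown in 96-well plates, cells were treated for 48 hours with each compound at five concentrations. Insufficient inhibition: endpoint recorded as highest concentration tested. Abbreviation: GI50, concentration required for 50% inhibition of growth. At the TGI there is no net growth.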

Columns and labels:
Experiment in all cases: inhibition of tumour cell growth, NCI panel, 48 h
CAKI-1 renal = test system: CAKI-1 renal
HS 578T breast = test system: HS 578T breast
IGROV1 ovarian = test system: IGROV1 ovarian
MDA-MB-231 breast = test system: MDA-MB-231 breast
NCI-H23 lung = test system: NCI-H23 lung
OVCAR-5 ovarian = test system: OVCAR-5 ovarian
SR leukemia = test system: SR leukemia
T-47D breast = test system: T-47D breast
UACC-257 melanoma = test system: UACC-257 melanoma
UO-31 renal = test system: UO-31 renal

Row | SMILES | GI50 (CAKI-1 renal) | TGI (CAKI-1 renal) | GI50 (HS 578T breast) | TGI (HS 578T breast) | GI50 (IGROV1 ovarian) | TGI (IGROV1 ovarian) | GI50 (MDA-MB-231 breast) | TGI (MDA-MB-231 breast) | GI50 (NCI-H23 lung) | TGI (NCI-H23 lung) | GI50 (OVCAR-5 ovarian) | TGI (OVCAR-5 ovarian) | GI50 (SR leukemia) | TGI (SR leukemia) | GI50 (T-47D breast) | TGI (T-47D breast) | GI50 (UACC-257 melanoma) | TGI (UACC-257 melanoma) | GI50 (UO-31 renal) | TGI (UO-31 renal)
1 | Fc1c[c-]c(-c2ccccn2)c(F)c1.[CH3-].[Pt+2].c1ccc([PH+](c2ccccc2)c2ccccn2)cc1 | 1.23 µM | 2.53 µM | 1.96 µM | 5.89 µM | 1.71 µM | 5.02 µM | 1.61 µM | 3.31 µM | 1.57 µM | 3.64 µM | 1.72 µM | 3.63 µM | 0.786 µM | 7.05 µM | 1.13 µM | 5.78 µM | 1.67 µM | 5.07 µM | 1.08 µM | 2.28 µM
2 | CSC1=Nc2c(c(C)c(-c3ccccc3)n2CCCCl)C2=NC(=O)CN12 | 4.6 µM | 28.1 µM | 6.3 µM | 35 µM | 3.59 µM | 21.1 µM | 5.64 µM | 23.8 µM | 8.26 µM | 46.3 µM | 11.6 µM | 37.8 µM | 3.45 µM | > 100 µM | 2.63 µM | 10.9 µM | 12.5 µM | 28.4 µM | 10.5 µM | 28.6 µM
3 | CCc1nc(-n2c(CC)nc3ccccc3c2=O)nc(N)c1-c1ccc(Cl)cc1 | 22.3 µM | > 84.3 µM | 48.4 µM | > 100 µM | 48.5 µM | > 100 µM | > 100 µM | > 100 µM | 10.9 µM | > 100 µM | 30.9 µM | > 100 µM | > 100 µM | > 100 µM | > 60.4 µM | > 100 µM | 13 µM | > 94.3 µM | 23.7 µM | > 100 µM
4 | COc1cc(-c2cc(-c3nc4cc(Cl)c(Cl)cc4[nH]3)[nH]n2)cc(OC)c1OC | 3.81 µM | 12.9 µM | 4.53 µM | > 100 µM | 3.86 µM | 18.2 µM | 4.14 µM | 20.1 µM | 3.4 µM | 13 µM | 7.08 µM | 21.6 µM | 3.89 µM | 20.6 µM | 1.87 µM | 5 µM | 3.77 µM | 14.3 µM | 2.47 µM | 8.48 µM
5 | COc1ccc2c(c1)C(=O)c1c-2c(OCCN(C)C)nc2cc(OC)ccc12 | 2.12 µM | 11.1 µM | 2.84 µM | 9.76 µM | 1.01 µM | 6.03 µM | 1.42 µM | 3.88 µM | 1.36 µM | 3.5 µM | 1.9 µM | 4.65 µM | 0.264 µM | 1.42 µM | 6.1 µM | 21.8 µM | 3.19 µM | 9.96 µM | 1.16 µM | 2.66 µM
6 | Clc1ccccc1-c1nc(-c2ccncc2)no1 |  | > 100 µM |  | > 100 µM |  | > 100 µM |  | > 100 µM |  | > 100 µM |  | > 100 µM |  | > 100 µM |  | > 100 µM |  | > 100 µM |  | > 100 µM
7 | C=CCC(N[C@@H](CO)c1ccccc1)c1ccccn1 (stereo partly drawn) | > 100 µM | > 100 µM | > 100 µM | > 100 µM | > 100 µM | > 100 µM | > 100 µM | > 100 µM | 60.2 µM | > 100 µM | > 100 µM | > 100 µM | 18.3 µM | > 100 µM | > 100 µM | > 100 µM | 74.8 µM | > 100 µM | 93.4 µM | > 100 µM
8 | COc1ccc(S(=O)(=O)NC2=NCCN2C(=S)SN2CCn3c2nsc3=S)cc1OC | 16.5 µM | 61.8 µM | 28.4 µM | > 100 µM | 23.2 µM | > 100 µM | 26.3 µM | > 100 µM | 22.4 µM | 53 µM | 20.8 µM | 40.4 µM | 22.6 µM | > 100 µM | 15.3 µM | 35.3 µM | 25.1 µM | 82.9 µM | 35.8 µM | > 100 µM
9 | CCC(C(=O)c1cccs1)C(O)(C(F)(F)F)C(F)(F)F (stereo not drawn) |  | > 100 µM |  | > 100 µM |  | > 100 µM |  | > 100 µM |  | > 100 µM |  | > 100 µM |  | > 100 µM |  | > 100 µM |  | > 100 µM |  | > 100 µM
10 | COc1ccc2c(O)c(/C=C3\N=Nc4ncccc43)oc2c1C[C@H]1CCNC[C@H]1F | 0.161 µM | 11.3 µM | 0.16 µM | 5.34 µM | 0.353 µM | 5.06 µM | 0.184 µM | 3.02 µM | 0.475 µM | 4.7 µM | 0.479 µM | 24.6 µM | 0.03 µM | 3.18 µM | 3.46 µM | 21.1 µM | 2.66 µM | 10.2 µM | 0.146 µM | 3.16 µM
11 | Cc1c2cnccc2c(C)c2c1c1cc(C(=O)O)ccc1n2C | 0.616 µM | 8.34 µM | 0.891 µM | 4.82 µM | 0.911 µM | 9.84 µM | 1.51 µM | 5.81 µM | 0.774 µM | 3.28 µM | 1.91 µM | 9.52 µM | 0.435 µM | 3.98 µM | 1.51 µM | > 26.5 µM | 1.12 µM | 4.84 µM | 0.49 µM | 4.21 µM
12 | O=C1c2ccccc2C(=O)c2c(NC(=O)C(Cl)CCl)cccc21 (stereo not drawn) |  | 38.8 µM |  | > 100 µM |  | 20 µM |  | 18.4 µM |  | 11.6 µM |  | 34.1 µM |  | 0.347 µM |  | > 27.5 µM |  | 36.5 µM |  | 24.1 µM
13 | NC(=O)c1ccc2nc(-c3ccc(C4(N)CCC4)cc3)c(-c3ccccc3)n2n1 | 10.3 µM | 23.9 µM | 0.863 µM | 10 µM | 0.0886 µM | 10.7 µM | 14.3 µM | 32.3 µM | 16.4 µM | 51.8 µM | 12.5 µM | 47 µM | 7.65 µM | 31.2 µM | 0.0186 µM | 15.8 µM | 13.2 µM | 29.7 µM | 0.409 µM | 13.5 µM
14 | COc1cc(OC)cc(-c2ccc(-c3ccc(C(=N)N)s3)s2)c1 | 1.38 µM | 2.78 µM | 1.35 µM | 3.22 µM | 2.03 µM | 3.99 µM | 0.8 µM | 2.62 µM | 1.66 µM | 3.34 µM | 1.5 µM | 3.19 µM | 0.331 µM and 0.244 µM | 0.918 µM and 0.598 µM | 1.36 µM | 3.15 µM | 1.77 µM | 3.36 µM | 1.51 µM | 3.31 µM
15 | Nc1ccc(-c2ccc(Nc3cc(S(=O)(=O)O)c(N)c4c3C(=O)c3ccccc3C4=O)cc2)c(S(=O)(=O)O)c1 |  | > 100 µM |  | > 100 µM |  | > 100 µM |  | > 100 µM |  | > 100 µM |  | > 100 µM |  | > 100 µM |  | > 100 µM |  | > 100 µM |  | > 100 µM
16 | CC(N)(Cc1c[nH]c2ccccc12)C(=O)O (stereo not drawn) | > 2500 µM | > 2500 µM | 1090 µM | > 2500 µM | > 2500 µM | > 2500 µM | > 2500 µM | > 2500 µM | > 2500 µM | > 2500 µM | > 2500 µM | > 2500 µM | > 2500 µM | > 2500 µM | > 2500 µM | > 2500 µM | > 2500 µM | > 2500 µM | > 2500 µM | > 2500 µM
17 | COc1cc(/C=C/C(=O)NC[C@]2(O)CCC3C4CCc5cc(O)ccc5C4CCC32C)ccc1O (stereo partly drawn) | 46.9 µM | > 100 µM | 67.6 µM | > 100 µM | 10.9 µM | 62.7 µM | 18 µM | > 100 µM | 5.63 µM | 34 µM | 56.9 µM | > 100 µM | 1.53 µM | 59.7 µM | 6.53 µM | > 100 µM | 39.5 µM | > 100 µM | 4.93 µM | 49.3 µM
18 | CN(C)CCNC(=O)c1cccc2cc([N+](=O)[O-])ccc12 |  | 16.4 µM |  | 7.16 µM | 1.79 µM and 0.245 µM | 14.2 µM and 2.32 µM |  | 6.21 µM | 1.69 µM and 0.211 µM | 6.68 µM and 0.758 µM |  | 5.47 µM and 0.87 µM |  | 0.132 µM |  | 16.3 µM |  | 0.897 µM | 1.28 µM and 0.168 µM | 4.6 µM and 1 µM
19 | O=S(=O)(CC#CCCCOCC#Cc1ccccc1C#CCS(=O)(=O)c1ccccc1)c1ccccc1 | 13.3 µM | 30.8 µM | 35.2 µM | > 100 µM | 11.8 µM | 25.7 µM | 19.8 µM | 42.8 µM | 15.5 µM | 44.8 µM | 24.8 µM | 55.3 µM | 4.16 µM | 21.8 µM | > 100 µM | > 100 µM | 14.9 µM | 38.9 µM | 17.7 µM | 35.4 µM
20 | O=C(CCc1ccco1)NC1CCN(CC2(c3ccc(Cl)cc3)CCC2)CC1 | 13.3 µM | 27.2 µM | 13.6 µM | 31.4 µM | 19.5 µM | 45.8 µM | 5.79 µM | 20.1 µM | 16.9 µM | 38.7 µM | 15.1 µM | 29.1 µM | 6.93 µM | 28.7 µM | 16.2 µM | 46.6 µM | 16.3 µM | 31.2 µM | 7.37 µM | 21.3 µM
21 | Cc1cc(C(=O)N[C@@H](CCC(=O)O)C(=O)O)sc1CC[C@@H]1CNc2nc(N)[nH]c(=O)c2C1 | < 0.01 µM | > 100 µM | 0.114 µM | > 100 µM | 0.0463 µM | > 100 µM | 5.56 µM | > 100 µM | 0.0952 µM | > 100 µM | 0.026 µM | > 100 µM | < 0.01 µM | > 100 µM | 0.0825 µM | > 100 µM | 0.0559 µM | > 100 µM | < 0.01 µM | > 100 µM
